Literature values, collected in US20230013142A1, “IODINE COMPOUNDS FOR TREATING RESPIRATORY PATHOGENS” (priority 2020, published 2023).

Key:
a variety of viruses = details: on the skin
[1] = I2 and I- mixed solutions
[2] = rats, ingestion, 2-year period
parasite's acid vesicles = details: biologically active concentrations
viral haemagglutinin = details: blockade of attachment to host cell receptors
neuraminidase = details: virucidal mechanism of action

II [iodine]
time for successful use against viruses (a variety of viruses): ≤ 5 min | evaporation rate relative to 26 degrees (room temperature) ([1]; at 50 degrees Centigrade): over 10 times | evaporation rate relative to 26 degrees ([1]; at 80 degrees): over 30 times | concentration at which decreased virulence of viruses occurred (influenza viruses; in vitro): 0.005 ppm | concentration for complete inactivation of viruses (influenza viruses; within 1 minute in vitro): 0.1 ppm | air level considered immediately dangerous to life or health (IDLH) (air level): 2 ppm | concentration at which reports of discomfort start (NIOSH) (inhalation): 1.5 ppm | concentration at which work is difficult (inhalation): 1.5-2 ppm | concentration at which short term exposure can be irritating (as low as) (inhalation, short term exposure): 0.1 ppm

[I-].[K+] [potassium iodide]
concentration with long-term decrease in life span [2]: 100 ppm | concentration with no long-term effects [2]: 10 ppm

CCN(CC)CCCC(C)Nc1ccnc2cc(Cl)ccc12 (centres unmarked) [chloroquine]
time to increase of pH of acid vesicles (parasite's acid vesicles): 3-5 min

povidone iodine (2-Pyrrolidinone, 1-ethenyl-homopolymer) [PVP-I]
effect on viral haemagglutinin (viral haemagglutinin): inhibits | effect on neuraminidase (neuraminidase): inhibition
